# Columns and labels:
# Bichir VDR = biological target: T1, Bichir VDR (Polypterus senegalus, UniProt A0A088GJ14); test: Transient transactivation assay (XREM-Luc, HepG2); assay type: cell-based; conditions: 100 μM LCA
# T1 sequence (A0A088GJ14 1-421): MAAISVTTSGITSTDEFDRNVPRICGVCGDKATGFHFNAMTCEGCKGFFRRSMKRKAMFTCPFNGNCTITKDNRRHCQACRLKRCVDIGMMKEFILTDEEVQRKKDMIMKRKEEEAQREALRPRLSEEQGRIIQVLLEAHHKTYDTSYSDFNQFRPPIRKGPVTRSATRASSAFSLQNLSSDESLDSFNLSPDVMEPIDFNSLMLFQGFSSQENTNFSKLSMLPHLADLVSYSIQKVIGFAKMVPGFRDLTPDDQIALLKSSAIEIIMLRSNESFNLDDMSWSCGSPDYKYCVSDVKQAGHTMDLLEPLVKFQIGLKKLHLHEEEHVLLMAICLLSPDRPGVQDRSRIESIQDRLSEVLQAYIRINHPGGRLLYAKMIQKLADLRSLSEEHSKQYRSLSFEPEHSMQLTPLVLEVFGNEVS
# T1 sequence (P19793 1-462 partner): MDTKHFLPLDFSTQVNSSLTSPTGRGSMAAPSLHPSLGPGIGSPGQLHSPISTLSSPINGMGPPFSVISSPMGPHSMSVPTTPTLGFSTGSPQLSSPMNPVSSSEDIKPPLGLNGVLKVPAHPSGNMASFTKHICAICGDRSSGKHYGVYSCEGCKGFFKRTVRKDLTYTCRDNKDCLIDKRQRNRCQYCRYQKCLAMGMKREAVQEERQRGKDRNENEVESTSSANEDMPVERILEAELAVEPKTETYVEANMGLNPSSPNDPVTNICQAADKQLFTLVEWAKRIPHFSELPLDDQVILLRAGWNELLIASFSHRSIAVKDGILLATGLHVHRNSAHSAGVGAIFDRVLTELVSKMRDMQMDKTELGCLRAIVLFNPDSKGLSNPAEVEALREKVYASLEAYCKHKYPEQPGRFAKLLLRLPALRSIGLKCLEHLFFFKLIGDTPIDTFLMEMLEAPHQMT
# Method: (§1) HepG2 cells (American Type Culture Collection #HB-8065) were cultured in T75 flasks with vented caps (Corning Life Sciences, Corning, NY) using Minimum Essential Medium (MEM) with phenol red supplemented with 10% fetal bovine serum, 1 mM sodium pyruvate, and 1X MEM non-essential amino acids. Cells were maintained following standard protocols in a 5% CO2 incubator set at 37°C, and split when 80–90% confluent.
# For the transient transactivation assays, HepG2 cells were seeded in 96-well tissue culture plates at a density of 2.5x10^4 cells per well in complete phenol red-free MEM, and allowed to recover overnight. Transfections were performed the following day using Lipofectamine 2000 (Life Technologies, Grand Island, NY) as described previously. For functional comparisons, 89.7 ng/well of full-length pSG5-VDR was co-transfected with 19.2 ng/well human XREM-Luc reporter and 4.5 ng/well of pRL-CMV as an internal luciferase control. Coregulator studies included the addition of 18.3 ng/well of human coregulators (pCDNA-RXRWT, pCDNA-RXRAF2, pSG5-SRC1, pSG5-GRIP1 or pSG5-ACTR) where indicated. […] Controls include 120 nM 1,25D3 as a positive control, and ethanol as a vehicle control. Twenty-four hours post-exposure cells were tested for luciferase activity using the Dual-Glo Luciferase Assay System (Promega Corporation, Madison, WI) according to the manufacturer’s protocols. Luciferase data were first normalized to the pRL-CMV internal luciferase control. […] To calculate the impact of coregulators on VDR transactivation, VDR response in the presence of coregulators was normalized to VDR alone. All experiments were repeated 3 times and conducted as groups of 4 replicate wells. VDR response in the absence of coregulators was analyzed using a 1-way ANOVA followed by Dunnett’s multiple comparisons test. To examine the effects of different coregulators on VDR activation, data were analyzed using a 2-way ANOVA followed by Bonferroni’s multiple comparisons test in GraphPad Prism (GraphPad Inc, San Diego, CA).
# Medaka VDRβ = biological target: T2, Medaka VDRβ (Oryzias latipes, UniProt B2CCA1); test: Transient transactivation assay (XREM-Luc, HepG2); assay type: cell-based; conditions: 100 μM LCA
# T2 sequence (B2CCA1 1-425): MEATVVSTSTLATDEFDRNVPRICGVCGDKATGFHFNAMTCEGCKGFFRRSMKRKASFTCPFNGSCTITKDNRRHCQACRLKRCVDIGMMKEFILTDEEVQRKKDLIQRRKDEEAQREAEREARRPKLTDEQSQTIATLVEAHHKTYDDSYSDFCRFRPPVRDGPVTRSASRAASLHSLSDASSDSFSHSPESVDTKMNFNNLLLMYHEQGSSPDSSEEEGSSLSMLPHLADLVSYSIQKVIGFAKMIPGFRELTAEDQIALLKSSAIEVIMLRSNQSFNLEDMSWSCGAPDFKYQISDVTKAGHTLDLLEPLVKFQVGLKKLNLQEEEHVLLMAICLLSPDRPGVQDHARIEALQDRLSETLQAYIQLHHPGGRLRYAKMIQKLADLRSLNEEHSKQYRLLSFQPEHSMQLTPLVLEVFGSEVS
# T2 sequence (P19793 1-462 partner): T1 sequence (P19793 1-462 partner)
# Method: as §1
# For the transient transactivation assays, HepG2 cells were seeded in 96-well tissue culture plates at a density of 2.5x10^4 cells per well in complete phenol red-free MEM, and allowed to recover overnight. Transfections were performed the following day using Lipofectamine 2000 (Life Technologies, Grand Island, NY) as described previously. For functional comparisons, 89.7 ng/well of full-length pSG5-VDR was co-transfected with 19.2 ng/well human XREM-Luc reporter and 4.5 ng/well of pRL-CMV as an internal luciferase control. Coregulator studies included the addition of 18.3 ng/well of human coregulators (pCDNA-RXRWT, pCDNA-RXRAF2, pSG5-SRC1, pSG5-GRIP1 or pSG5-ACTR) where indicated. […] Controls include 120 nM 1,25D3 as a positive control, and ethanol as a vehicle control. Twenty-four hours post-exposure cells were tested for luciferase activity using the Dual-Glo Luciferase Assay System (Promega Corporation, Madison, WI) according to the manufacturer’s protocols. Luciferase data were first normalized to the pRL-CMV internal luciferase control. LCA-mediated VDR transactivation (fold activation) was calculated as the ratio of the VDR luciferase response relative to the empty vector control. To calculate the impact of coregulators on VDR transactivation, VDR response in the presence of coregulators was normalized to VDR alone. All experiments were repeated 3 times and conducted as groups of 4 replicate wells. VDR response in the absence of coregulators was analyzed using a 1-way ANOVA followed by Dunnett’s multiple comparisons test. To examine the effects of different coregulators on VDR activation, data were analyzed using a 2-way ANOVA followed by Bonferroni’s multiple comparisons test in GraphPad Prism (GraphPad Inc, San Diego, CA).
# [1] = co-transfected human RXRWT, vs VDR alone
smiles,measurement,setting,value
"C[C@H](CCC(=O)O)[C@H]1CC[C@H]2[C@@H]3CC[C@@H]4C[C@H](O)CC[C@]4(C)[C@H]3CC[C@]12C [LCA, 5β-cholanic acid-3α-ol]",Effect of SRC/p160 co-activators on VDR transactivation,"Bichir VDR; any SRC/p160 co-activator, presence or absence of RXRWT",No change in transactivation
same,Effect of exogenous human RXRWT on VDR transactivation,Bichir VDR; [1],no effect
same,Effect of exogenous human RXRWT on VDR transactivation,Medaka VDRβ; [1],significantly enhanced transactivation
same,Effect of RXRWT+SRC1 or RXRWT+GRIP1 on VDR transactivation,Medaka VDRβ; compared to either coregulator individually,significantly enhanced VDR transactivation

# From PMC5152921, “Evolutionary and Functional Diversification of the Vitamin D Receptor-Lithocholic Acid Partnership” (PLoS ONE, 2016)
